Measurements taken from ChEMBL document CHEMBL1201862, “PubChem BioAssay data set” (2004).
Calls of active or inactive are those of the source.

Columns and labels:
Cysteine protease ATG4B = molecular target: T1, Cysteine protease ATG4B (Homo sapiens, UniProt Q9Y4P1); type: functional;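 also: Fluorescence-based dose-response confirmation assay measuring inhibition of ATG4B activity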
T1 sequence (Q9Y4P1 whole entry): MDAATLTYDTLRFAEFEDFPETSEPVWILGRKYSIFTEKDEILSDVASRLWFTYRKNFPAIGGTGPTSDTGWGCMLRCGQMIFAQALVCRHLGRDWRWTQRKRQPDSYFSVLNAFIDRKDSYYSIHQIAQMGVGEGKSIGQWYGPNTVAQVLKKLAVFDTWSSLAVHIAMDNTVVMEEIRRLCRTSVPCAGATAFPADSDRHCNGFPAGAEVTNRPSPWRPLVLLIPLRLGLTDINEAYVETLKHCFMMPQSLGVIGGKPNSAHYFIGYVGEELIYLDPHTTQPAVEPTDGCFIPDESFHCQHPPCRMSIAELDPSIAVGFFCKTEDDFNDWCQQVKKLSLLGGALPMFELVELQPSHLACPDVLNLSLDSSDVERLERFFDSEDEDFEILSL

Phospholipase A2 = Phospholipase A2 (Homo sapiens, UniProt P04054); type: functional;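 also: confirmatory dose-response counterscreen on phospholipase A2, testing hits that came from an ultra-high-throughput screen for ATG4B inhibitors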
Phospholipase A2, sequence (P04054 whole entry): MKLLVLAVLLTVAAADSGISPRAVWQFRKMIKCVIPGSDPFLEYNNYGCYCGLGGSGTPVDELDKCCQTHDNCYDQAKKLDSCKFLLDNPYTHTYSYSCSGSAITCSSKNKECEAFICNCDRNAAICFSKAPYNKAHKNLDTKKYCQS

[1] = molecular target: T2, Apoptotic protease-activating factor 1 (Homo sapiens, UniProt O14727); type: functional
T2 sequence (O14727 whole entry): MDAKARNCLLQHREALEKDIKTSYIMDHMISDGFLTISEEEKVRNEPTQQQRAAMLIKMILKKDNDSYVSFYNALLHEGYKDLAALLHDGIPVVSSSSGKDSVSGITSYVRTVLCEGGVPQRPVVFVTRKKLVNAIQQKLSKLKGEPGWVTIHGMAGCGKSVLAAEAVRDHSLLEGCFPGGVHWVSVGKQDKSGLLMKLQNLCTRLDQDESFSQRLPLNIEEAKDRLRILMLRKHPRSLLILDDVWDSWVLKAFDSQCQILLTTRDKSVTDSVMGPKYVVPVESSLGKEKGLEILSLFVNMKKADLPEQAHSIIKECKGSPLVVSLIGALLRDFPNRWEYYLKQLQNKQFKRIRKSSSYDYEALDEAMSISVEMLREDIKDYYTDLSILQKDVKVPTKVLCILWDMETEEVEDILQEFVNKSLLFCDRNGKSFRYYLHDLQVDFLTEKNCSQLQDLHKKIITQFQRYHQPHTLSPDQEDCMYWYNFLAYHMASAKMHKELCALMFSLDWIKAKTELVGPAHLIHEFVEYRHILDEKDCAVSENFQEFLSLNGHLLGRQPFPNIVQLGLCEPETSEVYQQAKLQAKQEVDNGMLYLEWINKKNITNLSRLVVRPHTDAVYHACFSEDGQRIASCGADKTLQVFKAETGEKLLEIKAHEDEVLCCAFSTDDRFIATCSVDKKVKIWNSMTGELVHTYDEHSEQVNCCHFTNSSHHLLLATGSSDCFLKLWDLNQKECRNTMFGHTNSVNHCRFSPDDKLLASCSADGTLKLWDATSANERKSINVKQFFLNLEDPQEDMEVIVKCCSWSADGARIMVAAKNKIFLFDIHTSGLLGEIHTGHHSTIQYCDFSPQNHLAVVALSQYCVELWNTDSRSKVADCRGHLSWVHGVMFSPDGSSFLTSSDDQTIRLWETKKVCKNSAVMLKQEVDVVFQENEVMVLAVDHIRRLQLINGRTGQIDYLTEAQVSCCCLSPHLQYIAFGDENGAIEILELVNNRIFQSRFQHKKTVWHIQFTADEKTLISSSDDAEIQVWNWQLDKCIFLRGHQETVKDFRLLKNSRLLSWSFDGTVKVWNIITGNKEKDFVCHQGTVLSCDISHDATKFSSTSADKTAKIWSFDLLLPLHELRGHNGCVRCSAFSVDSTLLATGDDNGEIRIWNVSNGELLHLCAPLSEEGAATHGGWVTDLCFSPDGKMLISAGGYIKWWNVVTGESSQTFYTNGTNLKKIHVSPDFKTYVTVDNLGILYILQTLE

[2] = molecular target: Dual specificity tyrosine-phosphorylation-regulated kinase 1A (Rattus norvegicus, UniProt Q63470); type: biochemical, Homo sapiens
[3] = molecular target: T3, Tyrosyl-DNA phosphodiesterase 2 (Homo sapiens, UniProt O95551); assay: human TDP2 enzyme inhibitors, dose response, biochemical, epi absorbance, IC50 (AID 743297)
T3 sequence (O95551 whole entry): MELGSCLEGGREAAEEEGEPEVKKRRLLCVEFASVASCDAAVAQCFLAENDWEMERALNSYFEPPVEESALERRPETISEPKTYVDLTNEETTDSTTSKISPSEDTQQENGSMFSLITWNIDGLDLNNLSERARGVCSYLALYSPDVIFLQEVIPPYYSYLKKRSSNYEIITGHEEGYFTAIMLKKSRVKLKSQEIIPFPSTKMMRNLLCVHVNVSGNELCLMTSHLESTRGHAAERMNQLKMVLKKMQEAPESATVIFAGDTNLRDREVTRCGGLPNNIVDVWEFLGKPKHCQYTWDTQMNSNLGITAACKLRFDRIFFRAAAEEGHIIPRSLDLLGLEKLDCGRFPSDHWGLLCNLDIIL

Compound	IC50 (Cysteine protease ATG4B)	IC50 (Phospholipase A2)	IC50 [1]	AC50 [2]	IC50 [3]
COC(=O)c1cc(C)nc2c1C(=O)C(=O)C=C2N1CCOCC1	4.45 µM (active)	65.6 µM (inactive)	1.01 µM (active)	0.983 µM (active)	1.33 µM (active)
NS(=O)(=O)c1cc(C(=O)NC2CCSc3ccccc32)ccc1Cl (centres undefined)	6.64 µM (active)	24.1 µM (inactive)	–	–	–
O=C1c2ccccc2C(=O)c2[nH]c(O)nc21	–	–	6.79 µM (active)	–	–
CCOC(=O)C1=C(C)OC2(O)c3ccccc3C(=O)C12O (centres undefined)	–	–	2.55 µM (active)	–	4.11 µM (active)
N#Cc1c(N2CCCC2)nc(N)c2c(N)nc(N3CCCC3)cc12	1.64 µM (active)	11.7 µM (active)	0.181 µM (active)	0.287 µM (active)	–
